What was measured:
U937 DHEAS sulphatase = molecular target: T1, U937 DHEAS sulphatase (Homo sapiens, UniProt P08842); assay: DHEAS sulphatase activity in U937 cell extracts; assay type: biochemical
T1 construct: DHEAS sulphatase activity in U937 cell extracts; endogenous in cells; host or cells: U937 cells (sonicate in Tris buffered saline with 1% Triton X-100)
T1 sequence (P08842 22-583): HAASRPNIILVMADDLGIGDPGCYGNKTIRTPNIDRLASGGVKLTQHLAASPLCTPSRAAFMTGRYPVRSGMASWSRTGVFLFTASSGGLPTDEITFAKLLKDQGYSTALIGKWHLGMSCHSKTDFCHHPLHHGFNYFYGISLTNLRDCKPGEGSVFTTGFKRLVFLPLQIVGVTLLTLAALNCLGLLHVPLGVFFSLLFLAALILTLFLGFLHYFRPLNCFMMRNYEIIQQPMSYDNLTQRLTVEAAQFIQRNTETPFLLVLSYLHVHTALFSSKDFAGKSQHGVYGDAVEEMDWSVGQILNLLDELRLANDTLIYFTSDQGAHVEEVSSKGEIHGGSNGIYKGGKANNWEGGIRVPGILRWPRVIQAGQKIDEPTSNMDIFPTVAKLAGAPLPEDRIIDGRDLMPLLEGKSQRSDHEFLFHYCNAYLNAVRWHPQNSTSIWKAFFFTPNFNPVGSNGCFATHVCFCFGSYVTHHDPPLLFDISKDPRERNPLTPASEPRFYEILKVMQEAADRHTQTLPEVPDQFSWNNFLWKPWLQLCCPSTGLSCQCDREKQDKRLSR
Protocol: c) DHEAS sulphatase activity in U937 cell extracts.
The inhibitors Ct 2211 and Ct 2251 were dissolved in 100% ethanol and 100% dimethyl sulphoxide (DMSO) respectively at stock concentrations of 20 mM. These were titrated in their respective solvents over a range of assay concentrations. The tritiated substrates DHEA sulphate and estrone sulphate were obtained from New England Nuclear and diluted in ethanol to give a final concentration of 70 nM for use in the assay. U937 cells were grown in RPLI containing 10% foetal bovine serum and harvested at a cell concentration of 1×10^6 /ml. These were washed in serum free medium stored at -70° C. at 1×10^8 /ml in Tris buffered saline pH7.4+1% triton X-100 and sonicated prior to use in the assay.
50 μl of substrate in ethanol was added to each assay tube and the solvent removed in a rotary vacuum evaporator. […] After centrifugation scintillation fluid was added to extract the desulphated substrate and the CPM present in an aliquot of the organic phase were counted using a beta counter.
In order to obtain total counts 10 μl of the aqueous fraction of the duplicate tubes containing only hot DHEA-s were counted after addition of scintillant and the total cpm calculated as follows: [formula] where vo +inhibitor-rate in the presence of inhibitor and vo -inhibitor=rate in the absence of inhibitor.
IC50 determined as described previously.

[1] = molecular target: T2, human placental microsomal DHEAS sulphatase (Homo sapiens, UniProt P08842); assay: Human placental microsomal steroid sulphatase assay; assay type: biochemical
T2 construct: Human placental microsomes prepared as described in; from tissue; host or cells: human placenta, microsomes (prepared as Santner et al 1984)
T2 sequence (P08842 22-583): T1 sequence (P08842 22-583)
Protocol: a) Human placental microsomal steroid sulphatase
ENZYME: Human placental microsomes prepared as described in (Santner, S. J., et al (1984) J. Clin. Endocrinol. Metab. 59 29).
ASSAY: All assays were carried out in (at least) duplicate. The reaction mixture consisted of either PBS+250 mM sucrose (placental microsomes), containing 1 μmol/1 DHEAS [concentration chosen because approx. […]] with 0.05% (v/v) [^3 H] substrate and 0.05% (v/v) [^14 C] DHEA) in 0.5% (v/v DMSO. The reaction was initiated by addition of appropriately diluted) such that 10% substrate conversion occurred during the assay) enzyme and incubated for 30 min at 30° C. Reactions were stopped by addition of 1000 μl toluene to the reaction mixture, vortexed (2*40 sec on max setting of multitube vortexer), then allow to settle for 5 min. 500 μl top (solvent) layer removed to scintillation vial. add 10 ml scintillation fluid (Ultima Gold XR) then counted for radioactivity on a scintillation counter. As controls, enzyme was excluded from some reaction mixtures and 50% solvent and aqueous layers removed and counted for radioactivity in order to determine background (in solvent layer) and total (in aqueous layer) [^3 H]. [^14 C] DHEA is included to enable back correction to allow for product (DHEA) recovery (normally >98%). […]

For C[C@]12CC[C@@H]3c4ccc(OS(N)(=O)=O)cc4CC[C@H]3[C@@H]1CCC2=O [CT 2251, Estrone 3-0-sulphamate], the IC50 (U937 DHEAS sulphatase) was 40 nM, the “inhibition of U937 sulphatase with estrone sulphate as substrate” value (U937 DHEAS sulphatase; FIG. 3, estrone sulphate substrate) was “inhibit” and the IC50 [1] was 5 nM.

— patent publication US6013642A, “Use of estrone derivatives as steroid sulphatase inhibitors” (priority 1994, dated 2000)
